# Experimental data as given in US20180250313A1, “COMPOUNDS AND FORMULATIONS FOR TREATING OPHTHALMIC DISEASES” (VIEWPOINT THERAPEUTICS, INC., priority 2015, published 2018).
# Columns and labels:
# [1] = Ex vivo human tissue pharmacokinetic experiment: entire human globes soaked six days, C29 exposure in areas of the eye; assay type: in vitro ADME; details: for Calculated Concentration: globe soaked in 1 mM API in 8% cyclodextrin in PBS, six days, room temperature; for Dilution Corrected Concentration: six days soak, 1 mM API in 8% cyclodextrin in PBS
# Method: Pharmacokinetic experiments were performed on entire human globes (eye without appendages) to determine exposure of the compound (C29) in various areas of the eye. Each globe was obtained less than 24 hours after collection and then soaked in either a solution of 1 mM API in 8% cyclodextrin in PBS or only PBS for six days at room temperature.
# [2] = Kinetics of compound accumulation in the lens of entire human globes soaked one to four days; assay type: in vitro ADME; details: human globes in 1 mM API in 8% cyclodextrin in PBS, room temperature
# Method: In a similar experiment, entire human globes were used to determine the kinetics of compound accumulation in the lens. A total of eight globes were soaked in a solution of 1 mM API in 8% cyclodextrin in PBS for one, two, three, or four days at room temperature.
# [3] = Ocular distribution of Compound IIIC after intravitreal administration (LC-MS/MS of ocular tissues); assay type: in vivo, New Zealand White rabbits; details: for Levels in the lens: intravitreal
# Excerpt: New Zealand White rabbits obtained from the Western Oregon Rabbit Company were used for this study. 12 animals were used in this study, and all animals used were male. Prior to treatment initiation, selection of animals for the study was based on a visual appraisal of good clinical condition and body weight specifications. Animals selected for use in this study were as uniform in age and weight as possible. Animal's weights ranged from about 2.58 to about 3.22 kilograms at the start of the experiment. All animals were healthy at the time of animal selection. All animals were identified by ear tag and by cage cards listing the animal identification number, study number, group, and sex of the animal.
# The compound of formula IIIC was tested at two different concentrations, 3% weight/volume and 0.5% weight/volume. For both concentrations the compound was formulated as an aqueous suspension. Details of the formulations are as follows: Formulation 1: 3% of ˜500 nm nanoparticles of a compound of formula IIIC in 0.6% tromethamine as buffer, 0.1% polysorbate-80 to aide in dispersion of the API, pH adjusted with boric acid to 7.4, and osmolarity adjusted with mannitol to 293 mOsm. Formulation 2: 0.5% of ˜500 nm nanoparticles of a compound of formula IIIC in 0.6% tromethamine as buffer, 0.1% polysorbate-80 to aide in dispersion of the API, pH adjusted with boric acid to 7.4, and osmolarity adjusted with mannitol to 293 mOsm.
# Animals were assigned to one of two experimental groups based on body weight, such that each group contained 6 animals. Animals in group 1 were administered 25 μL for formulation 1 by intravitreous injection, while animals in group 2 were administered 25 μL of formulation 2. Within each group animals were further divided into 3 time points, 2 hours, 1 day and 7 days. Each time point consisted of two animals. Administration of formulations 1 and 2 occurred at time 0.
# For intravitreal injections animals were anesthetized with an intramuscular injection of ketamine hydrochloride (12 to 20 mg/kg) and xylazine (5 mg/kg). One to two drops of topical proparacaine hydrochloride anesthetic (0.5%) were applied to the animal's eyes prior to the surgical procedure. The eyes were cleaned with Betadine and then rinsed with balanced salt solution (BSS). Test article was drawn up directly into a 0.3 mL insulin syringe with a 31G 5/16 inch needle, and injections were made 4 to 5 mm away from the limbus. Once the needle was inserted, 25 μL of the test article was injected. The needle was removed and the eye rinsed with BSS. […] Animals were monitored during recovery.
# Animals were euthanized at the designated time points by an intravenous injection of pentobarbital (150 mg/kg). […] The concentration of compound IIIC in each collected sample was measured by LC-MS/MS. […]
smiles,measurement,setting,value
"C[C@H](CCCC(C)(C)O)[C@H]1CC[C@H]2[C@@H]3CC=C4C[C@@H](O)CC[C@]4(C)[C@H]3CC[C@]12C [Compound C29, 25-hydroxycholesterol]",Calculated Concentration,[1]; Human Cornea,2120 nM
same,Dilution Corrected Concentration,[1]; Human Cornea,4.24 µM
same,Calculated Concentration,[1]; Human Iris,1330 nM
same,Dilution Corrected Concentration,[1]; Human Iris,2.66 µM
same,Calculated Concentration,[1]; Human Lens,7620 nM
same,Dilution Corrected Concentration,[1]; Human Lens,15.24 µM
same,Calculated Concentration,[1]; Human Retina,4310 nM
same,Dilution Corrected Concentration,[1]; Human Retina,8.62 µM
same,Calculated Concentration,[1]; Human Vitreous Humor,2410 nM
same,Dilution Corrected Concentration,[1]; Human Vitreous Humor,4.82 µM
same,Average Concentration in Lens,[2]; 1 day of incubation,14.5 µM
same,Average Concentration in Lens,[2]; 2 days of incubation,20.7 µM
same,Average Concentration in Lens,[2]; 3 days of incubation,39.8 µM
same,Average Concentration in Lens,[2]; 4 days of incubation,37.8 µM
same,"levels in the vitreous humor, course over time","[3]; intravitreal 25 μL, 3% and 0.5% formulation, 2 hr, 24 hr, 168 hr",decreased steadily at later time points
same,"levels in the vitreous humor, dependence on dose","[3]; intravitreal 25 μL, 3% versus 0.5% formulation, 2 hr, 24 hr, 168 hr",dose-dependent
same,Levels in the lens,[3]; earlier time points,undetectable
same,Levels in the lens,"[3]; higher-dosed group, last time point (7 days after dosing)",consistently exhibiting detectable levels
